Consider 48 molecules from US20220402925A1, “COMPOUNDS AND METHODS FOR THE TREATMENT OF CYSTIC FIBROSIS” (Flatley Discovery Lab, LLC, priority 2019, published 2022).

T1 sequence (P13569 with tags, fused parts or gaps DEL508-508): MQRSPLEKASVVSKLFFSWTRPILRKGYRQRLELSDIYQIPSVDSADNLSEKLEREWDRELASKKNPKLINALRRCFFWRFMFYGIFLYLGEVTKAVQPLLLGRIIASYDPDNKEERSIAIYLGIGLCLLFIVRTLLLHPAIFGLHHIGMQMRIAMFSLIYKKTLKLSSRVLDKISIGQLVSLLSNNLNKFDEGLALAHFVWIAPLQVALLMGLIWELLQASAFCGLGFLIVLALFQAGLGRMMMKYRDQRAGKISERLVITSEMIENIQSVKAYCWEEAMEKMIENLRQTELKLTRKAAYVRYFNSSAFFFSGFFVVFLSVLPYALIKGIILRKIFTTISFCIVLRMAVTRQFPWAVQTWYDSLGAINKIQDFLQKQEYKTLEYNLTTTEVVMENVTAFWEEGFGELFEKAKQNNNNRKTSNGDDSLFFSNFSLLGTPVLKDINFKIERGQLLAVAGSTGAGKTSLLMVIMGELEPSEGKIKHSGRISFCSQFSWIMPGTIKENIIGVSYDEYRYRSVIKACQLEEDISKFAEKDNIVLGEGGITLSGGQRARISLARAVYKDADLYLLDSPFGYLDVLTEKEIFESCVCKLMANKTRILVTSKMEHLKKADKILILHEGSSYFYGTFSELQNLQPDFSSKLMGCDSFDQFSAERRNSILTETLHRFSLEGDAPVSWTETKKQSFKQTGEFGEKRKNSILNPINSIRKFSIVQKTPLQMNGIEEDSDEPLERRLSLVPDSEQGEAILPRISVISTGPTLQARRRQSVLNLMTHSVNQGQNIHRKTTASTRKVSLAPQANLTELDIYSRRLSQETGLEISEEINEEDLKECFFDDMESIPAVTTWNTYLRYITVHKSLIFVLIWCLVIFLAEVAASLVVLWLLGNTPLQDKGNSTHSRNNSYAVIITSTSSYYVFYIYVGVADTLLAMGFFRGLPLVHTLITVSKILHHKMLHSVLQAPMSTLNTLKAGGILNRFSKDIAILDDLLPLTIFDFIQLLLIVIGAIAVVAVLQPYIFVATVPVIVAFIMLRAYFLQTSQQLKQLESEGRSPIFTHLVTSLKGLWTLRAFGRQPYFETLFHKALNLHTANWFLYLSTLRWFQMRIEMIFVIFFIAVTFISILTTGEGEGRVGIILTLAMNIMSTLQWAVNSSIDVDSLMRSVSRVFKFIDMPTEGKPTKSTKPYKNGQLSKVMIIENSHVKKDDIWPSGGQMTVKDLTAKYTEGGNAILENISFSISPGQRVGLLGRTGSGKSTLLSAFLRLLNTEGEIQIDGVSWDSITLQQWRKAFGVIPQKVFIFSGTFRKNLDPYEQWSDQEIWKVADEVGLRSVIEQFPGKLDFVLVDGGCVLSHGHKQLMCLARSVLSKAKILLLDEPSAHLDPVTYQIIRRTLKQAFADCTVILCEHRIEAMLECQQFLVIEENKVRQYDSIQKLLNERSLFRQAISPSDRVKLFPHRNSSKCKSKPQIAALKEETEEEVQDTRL

This experiment has as its target T1, F508del CFTR (Homo sapiens, UniProt P13569, DEL508-508).
T1 construct: Primary CF airway epithelial cells were obtained from the UNC Cystic Fibrosis Tissue Procurement and Cell Culture Core; host or cells: primary CF airway epithelial cells
Kind of experiment: Equivalent current assay in primary CF airway epithelial cells (Corrector Activity, NAUC normalized to 3 μM VX809). In kind it is cell-based. Particulars: NAUC as % of positive control (VX-809). The essentials:
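Readout is NAUC: current area from forskolin/potentiator addition until CFTR-172, minus vehicle, relative to 3 μM VX809 (=1.0). Cells were primary CF epithelia at air-liquid interface ≥4 weeks, given basolateral compound for 24 h at 37° C; median of n≥4 replicates, sigmoid fit with nH fixed at 1.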
Regarding `CN(C(=O)Cn1nc(-c2cccc(F)c2)c2occc2c1=O)c1ccc2c(c1F)OC(F)(F)O2` [Example 108], the “Corr Activity (NAUC)” value is reported as “+++ (NAUC>70% of positive control)”.
In the case of `COc1ccc(-c2nn(CC(=O)N(c3ccc4c(c3)OC(F)(F)O4)C3CC3)c(=O)c3nc[nH]c23)cc1C#N` [Example 464], the “Corr Activity (NAUC)” value is “+++ (NAUC>70% of positive control)”.
As for `CCN(C(=O)Cn1nc(-c2cccc(C#N)c2)c2c(c1=O)CCC2)c1ccc2nc(C)oc2c1` [Example 50], the “Corr Activity (NAUC)” value was “+++ (NAUC>70% of positive control)”.
For the molecule `CCN(C(=O)Cn1nc(-c2cc(C)cc(Cl)c2)c2[nH]cnc2c1=O)c1ccc2c(c1)OC(F)(F)O2` [Example 269], the “Corr Activity (NAUC)” value is reported as “+++ (NAUC>70% of positive control)”.
Next, `Cc1cc2c(cc1N(C)C(=O)Cn1nc(-c3cc(F)cc(C#N)c3)c3occc3c1=O)OC(F)(F)O2` [Example 166]: “+++ (NAUC>70% of positive control)”.
As to `CCN(C(=O)Cn1nc(-c2cc(C)cc(C#N)c2)c2oc(C(=O)NC(C)(C)C(F)(F)F)cc2c1=O)c1cc2c(cc1C)OC(F)(F)O2` [Example 151], the “Corr Activity (NAUC)” value is “+++ (NAUC>70% of positive control)”.
Consider `CCN(C(=O)Cn1nc(-c2cccc(C#N)c2)c2occc2c1=O)c1ccc2c(c1C)OC(F)(F)O2` [Example 54], for which the “Corr Activity (NAUC)” value is recorded as “+++ (NAUC>70% of positive control)”.
As to `Cc1nc2ccc(N(C)C(=O)Cn3nc(-c4cccc(C#N)c4)c4oc(C5CCC5)cc4c3=O)cc2o1` [Example 232], the “Corr Activity (NAUC)” value was “++ (NAUC 70-40% of positive control)”.
As for `CCN(C(=O)Cn1nc(-c2ccc3[nH]c4ccccc4c3c2)c2[nH]cnc2c1=O)c1ccc2c(c1)OC(F)(F)O2` [Example 295], the “Corr Activity (NAUC)” value is “+ (NAUC<40% of positive control)”.
In the case of `Cc1cc(C#N)cc(-c2nn(CC(=O)N(C)c3cc4c(cc3C)OC(F)(F)O4)c(=O)c3cc(C(=O)NC(C)(C)C)oc23)c1` [Example 134], the “Corr Activity (NAUC)” value was “++ (NAUC 70-40% of positive control)”.
For `CCN(C(=O)Cn1nc(-c2cc(Cl)cc(C#N)c2)c2occc2c1=O)c1cc2c(cc1C)OC(F)(F)O2` [Example 169], the “Corr Activity (NAUC)” value is “+++ (NAUC>70% of positive control)”.
Consider `CCN(C(=O)Cn1nc(-c2cccc(F)c2)c2oc(C3CC3)cc2c1=O)c1ccc2c(c1)OC(F)(F)O2` [Example 229], for which the “Corr Activity (NAUC)” value is “+++ (NAUC>70% of positive control)”.
Take `Cc1cc2c(=O)n(CC(=O)N(C)c3ccc4c(c3)OC(F)(F)O4)nc(-c3cc(Cl)cc(C#N)c3)c2o1` [Example 72]: the “Corr Activity (NAUC)” value is listed as “+++ (NAUC>70% of positive control)”.
Consider `CCN(C(=O)Cn1nc(-c2cc(Cl)cc(OC)c2)c2oc(C3CCC3)cc2c1=O)c1ccc2c(c1)OC(F)(F)O2` [Example 240], for which the “Corr Activity (NAUC)” value is reported as “+ (NAUC<40% of positive control)”.
With `Cc1cc(C#N)cc(-c2nn(CC(=O)N(C)c3ccc4c(c3)OC(F)(F)O4)c(=O)c3ccoc23)c1` [Example 86] the entry was “+++ (NAUC>70% of positive control)”; with `N#Cc1cc(-c2nn(CC(=O)N(c3ccc4c(c3)OC(F)(F)O4)C3CC3)c(=O)c3nc[nH]c23)ccc1N1CCCC1` [Example 470], “+++ (NAUC>70% of positive control)”.
Take `CN(C(=O)Cn1nc(-c2cc(Cl)cc(Cl)c2)c2occc2c1=O)c1ccc2c(c1)OC(F)(F)O2` [Example 42]: the “Corr Activity (NAUC)” value was “+++ (NAUC>70% of positive control)”.
As to `CCN(C(=O)Cn1nc(-c2cc(Cl)cc(C#N)c2)c2oc(C(=O)NC(C)(C)C)cc2c1=O)c1cc2c(cc1C)OC(F)(F)O2` [Example 137], the “Corr Activity (NAUC)” value is on record as “+++ (NAUC>70% of positive control)”.
Turning to `CCN(C(=O)Cn1nc(-c2cc(F)cc(C#N)c2)c2oc(C(=O)NC(C)(C)C)cc2c1=O)c1cc2c(cc1C)OC(F)(F)O2` [Example 136], the “Corr Activity (NAUC)” value was “+++ (NAUC>70% of positive control)”.
For `CCN(C(=O)Cn1nc(-c2ccc(CC#N)c(F)c2)c2[nH]cnc2c1=O)c1ccc2c(c1)OC(F)(F)O2` [Example 317], the “Corr Activity (NAUC)” value is “+ (NAUC<40% of positive control)”.
For the molecule `CCN(C(=O)Cn1nc(-c2ccc(OC(F)(F)F)c(C#N)c2)c2[nH]cnc2c1=O)c1ccc2c(c1)OC(F)(F)O2` [Example 365], the “Corr Activity (NAUC)” value is listed as “+++ (NAUC>70% of positive control)”.
With `Cc1cc(Cl)cc(-c2nn(CC(=O)N(C)c3ccc4c(c3)OC(F)(F)O4)c(=O)c3ccoc23)c1` [Example 85], the “Corr Activity (NAUC)” value is on record as “+++ (NAUC>70% of positive control)”.
For the molecule `N#Cc1cc(Cl)cc(-c2nn(CC(=O)N(c3ccc4c(c3)OC(F)(F)O4)C3CC3)c(=O)c3nc[nH]c23)c1` [Example 369], the “Corr Activity (NAUC)” value is listed as “+++ (NAUC>70% of positive control)”.
For the molecule `CCN(C(=O)Cn1nc(-c2cc(F)cc(C#N)c2)c2occc2c1=O)c1ccc2c(c1)OC(F)(F)O2` [Example 177], the “Corr Activity (NAUC)” value is recorded as “+++ (NAUC>70% of positive control)”.
`COc1cc(C#N)cc(-c2nn(CC(=O)N3CCCc4c3ccc3c4OC(F)(F)O3)c(=O)c3ccoc23)c1` [Example 105]: the “Corr Activity (NAUC)” value is listed as “+++ (NAUC>70% of positive control)”.
With `COc1cc(OC)cc(-c2nn(CC(=O)N(c3ccc4c(c3)OC(F)(F)O4)C3CC3)c(=O)c3nc[nH]c23)c1` [Example 381] the entry was “+ (NAUC<40% of positive control)”.
For the molecule `CCN(C(=O)Cn1nc(-c2cc(Cl)cc(OC)c2)c2occc2c1=O)c1ccc2c(c1)OC(F)(F)O2` [Example 112], the “Corr Activity (NAUC)” value is “+++ (NAUC>70% of positive control)”.
Next, `O=C(Cn1nc(-c2cc(Cl)cc(OCc3ccccc3)c2)c2[nH]cnc2c1=O)N(c1ccc2c(c1)OC(F)(F)O2)C1CC1` [Example 396]: “+++ (NAUC>70% of positive control)”; `CCN(C(=O)Cn1nc(-c2cc(C#N)cc(C(F)(F)F)c2)c2occc2c1=O)c1ccc2c(c1)OC(F)(F)O2` [Example 97]: “+ (NAUC<40% of positive control)”.
In the case of `CCN(C(=O)Cn1nc(-c2cc(F)cc(OC)c2)c2oc(C3CC3)cc2c1=O)c1ccc2c(c1)OC(F)(F)O2` [Example 228], the “Corr Activity (NAUC)” value is recorded as “+++ (NAUC>70% of positive control)”.
In the case of `Cc1c(N(C)C(=O)Cn2nc(-c3cc(F)cc(C#N)c3)c3occc3c2=O)ccc2c1OC(F)(F)O2` [Example 170], the “Corr Activity (NAUC)” value was “++ (NAUC 70-40% of positive control)”.
Turning to `O=C(Cn1nc(-c2ccc3c(c2)ncn3-c2ccccc2)c2[nH]cnc2c1=O)N(c1ccc2c(c1)OC(F)(F)O2)C1CC1` [Example 433], the “Corr Activity (NAUC)” value is on record as “+ (NAUC<40% of positive control)”.
Next, `O=C(Cn1nc(-c2cccc(Cl)c2)c2[nH]cnc2c1=O)N1CCCc2c1ccc1c2OC(F)(F)O1` [Example 374]: “+++ (NAUC>70% of positive control)”; `CCN(C(=O)Cn1nc(-c2cc(F)cc(Cl)c2)c2oc(C3CCC3)cc2c1=O)c1ccc2c(c1)OC(F)(F)O2` [Example 236]: “+++ (NAUC>70% of positive control)”.
`CN(C(=O)Cn1nc(-c2cccc(F)c2)c2sccc2c1=O)c1ccc2c(c1)CCC2` [Example 3]: the “Corr Activity (NAUC)” value was “+++ (NAUC>70% of positive control)”.
On to `CCN(C(=O)Cn1nc(-c2cc(Cl)cc(C(F)(F)F)c2)c2[nH]cnc2c1=O)c1ccc2c(c1)OC(F)(F)O2` [Example 278], for which the “Corr Activity (NAUC)” value is “+++ (NAUC>70% of positive control)”.
Next, `CCN(C(=O)Cn1nc(-c2cc(Cl)cc(N3CCCC3)c2)c2[nH]cnc2c1=O)c1ccc2c(c1)OC(F)(F)O2` [Example 277]: “+++ (NAUC>70% of positive control)”; `Cc1nc2ccc(N(C)C(=O)Cn3nc(-c4cccc(OC(F)(F)F)c4)c4occc4c3=O)cc2o1` [Example 93]: “+ (NAUC<40% of positive control)”; `CCN(C(=O)Cn1nc(-c2cc(F)cc(OCC(F)(F)F)c2)c2[nH]cnc2c1=O)c1ccc2c(c1)OC(F)(F)O2` [Example 270]: “++ (NAUC 70-40% of positive control)”.
Next, `CCN(C(=O)Cn1nc(-c2ccc(OC)c(C(F)(F)F)c2)c2[nH]cnc2c1=O)c1ccc2c(c1)OC(F)(F)O2` [Example 338]: “++ (NAUC 70-40% of positive control)”; `CN(C(=O)Cn1nc(-c2cccc(Cl)c2)c2oc(NC(=O)OC(C)(C)C)cc2c1=O)c1ccc2c(c1)OC(F)(F)O2` [Example 181, tert-butyl (7-(3-chlorophenyl)-5-(2-((2,2-difluorobenzo[d][1,3]dioxol-5-yl)(methyl)amino)-2-oxoethyl)-4-oxo-4,5-dihydrofuro[2,3-d]pyridazin-2-yl)carbamate]: “+++ (NAUC>70% of positive control)”; `COC(=O)c1ccc(-c2nn(CC(=O)N(C)c3ccc4c(c3)OC(F)(F)O4)c(=O)c3ccoc23)cc1C#N` [Example 95]: “++ (NAUC 70-40% of positive control)”.
With `CCN(C(=O)Cn1nc(-c2cccc(Cl)c2)c2cn[nH]c2c1=O)c1ccc2c(c1)OC(F)(F)O2` [Example 496], the “Corr Activity (NAUC)” value is on record as “++ (NAUC 70-40% of positive control)”.
In the case of `CCN(C(=O)Cn1nc(-c2cc(F)cc(F)c2)c2oc(C3CC3)cc2c1=O)c1ccc2c(c1)OC(F)(F)O2` [Example 222], the “Corr Activity (NAUC)” value is reported as “+++ (NAUC>70% of positive control)”.
In the case of `N#Cc1cccc(-c2nn(CC(=O)N(c3ccc4c(c3)OC(F)(F)O4)C3CCOC3)c(=O)c3ccoc23)c1` (stereo not drawn) [Example 39], the “Corr Activity (NAUC)” value is listed as “+++ (NAUC>70% of positive control)”.
`O=C(Cn1nc(-c2cccc(Cl)c2)c2occc2c1=O)N1CCCc2c1ccc1c2OC(F)(F)O1` [Example 51]: the “Corr Activity (NAUC)” value was “++ (NAUC 70-40% of positive control)”.
`CC(C)n1ncc2cc(-c3nn(CC(=O)N(c4ccc5c(c4)OC(F)(F)O5)C4CC4)c(=O)c4nc[nH]c34)ccc21` [Example 430]: the “Corr Activity (NAUC)” value is listed as “+ (NAUC<40% of positive control)”.
For `Cc1nc2ccc(N(C)C(=O)Cn3nc(-c4cccc(C(C)(C)C)c4)c4occc4c3=O)cc2o1` [Example 92], the “Corr Activity (NAUC)” value is given as “+ (NAUC<40% of positive control)”.
